# Test results: US7998995B2 (Exelixis Patent Company LLC, priority 2006, dated 2011)
# System: T1, LXR
# T1 construct: fused on or other part: GST fused to the LBD in the FRET assay
# Experiment: Measured EC50 or IC50 for LXR (LXRα and/or LXRβ; assay and subtype not given)
# Conditions: IC50 or EC50 class, subtype not specified
# Protocol: Measured EC50 or IC50 for LXR, and FXR for Compounds of the Invention
# LXR and FXR activities for various compounds of the invention are presented in the following table; those compounds with EC50 or IC50 values <10 μM for at least one of LXRα, LXRβ or FXR are considered to be active. In the following Table, IC50 or EC50 data is represented as follows: A<1 μM, B=1-10 μm, and C>10 μM.
row,EC50 [µM],Structure (SMILES)
1,< 1,"CC(C)(C)OC(=O)N1CCC[C@@H]1c1cn(-c2ccc(-c3cccc(S(C)(=O)=O)c3)cc2)c(-c2ccccc2C(F)(F)F)n1 [Example 1017, (R)-tert-butyl 2-(1-(3′-(methylsulfonyl)biphenyl-4-yl)-2-(2-(trifluoromethyl)phenyl)-1H-imidazol-4-yl)pyrrolidine-1-carboxylate]"
2,< 1,"CS(=O)(=O)c1cccc(-c2ccc(OCc3cc(C(F)(F)F)nn3-c3ccccc3Cl)c(F)c2)c1 [Example 925, 1-(2-chlorophenyl)-5-({[3-fluoro-3′-(methylsulfonyl)biphenyl-4-yl]oxy}methyl)-3-(trifluoromethyl)-1H-pyrazole]"
3,1 to 10,"CS(=O)(=O)c1cccc(-c2ccc(OCc3cc(C(F)(F)F)nn3-c3ccccc3Cl)c(Cl)c2)c1 [Example 908, 5-({[3-chloro-3′-(methylsulfonyl)biphenyl-4-yl]oxy}methyl)-1-(2-chlorophenyl)-3-(trifluoromethyl)-1H-pyrazole]"
4,< 1,"CC1(C)CC(=O)C=C(c2cn(-c3ccc(-c4cccc(S(C)(=O)=O)c4)cc3Cl)c(-c3ccccc3Cl)n2)O1 [Example 982, 6-[1-(3-Chloro-3′-methanesulfonyl-biphenyl-4-yl)-2-(2-chlorophenyl)-1-H-imidazol-4-yl]-2,2-dimethyl-2,3-dihydro-pyran-4-one]"
5,< 1,"CS(=O)(=O)c1cccc(-c2ccc(-n3cc(C4(C#N)CCOCC4)nc3-c3ccccc3C(F)(F)F)cc2)c1 [Example 1031, 4-(1-(3′-methylsulfonyl)biphenyl-4-yl)-2-(2-(trifluoromethyl)phenyl-1H-imidazol-4-yl)tetrahydro-2H-pyran-4-carbonitrile]"
6,1 to 10,"Cc1cc(OCc2cc(C(F)(F)F)nn2-c2ccccc2Cl)ccc1-c1cccc(S(C)(=O)=O)c1 [Example 910, 1-(2-chlorophenyl)-5-({[2-methyl-3′-(methylsulfonyl)biphenyl-4-]oxy}methyl)-3-(trifluoromethyl)-1H-pyrazole]"
7,< 1,"CS(=O)(=O)c1cccc(-c2ccc(-n3cc(-c4n[nH]c(=O)o4)nc3-c3ccccc3C(F)(F)F)cc2)c1 [Example 1023, 5-(1-(3′-(methylsulfonyl)biphenyl-4-yl)-2-(2-(trifluoromethyl)phenyl)-1H-imidazol-4-yl)-1,3,4-oxadiazol-2(3H)-one]"
8,< 1,"CC1(C)CSC(c2cn(-c3ccc(-c4cccc(S(C)(=O)=O)c4)cc3Cl)c(-c3c(Cl)cccc3Cl)n2)=N1 [Example 940, 2-{1-[3-chloro-3′-(methylsulfonyl)biphenyl-4-yl]-2-(2,6-dichlorophenyl)-1H-imidazol-4-yl}-4,4-dimethyl-4,5-dihydro-1,3-thiazole]"
9,> 10,"O=C(NCc1cccc(C(F)(F)F)c1)c1cc(C(F)(F)F)nn1-c1ccccc1Cl [Example 106, 1-(2-chlorophenyl)-3-(trifluoromethyl)-N-{[3-(trifluoromethyl)phenyl]methyl}-1H-pyrazole-5-carboxamide]"
10,< 1,"CS(=O)(=O)c1cccc(-c2ccc(COc3cc(C(F)(F)F)nn3-c3c(Cl)cccc3Cl)c(F)c2)c1 [Example 117, 1-(2,6-dichlorophenyl)-5-({[3-fluoro-3′-(methylsulfonyl)biphenyl-4-yl]methyl}oxy)-3-(trifluoromethyl)-1H-pyrazole]"
11,1 to 10,"CC(C)(C(=O)O)c1cccc(-c2ccc(OCc3cc(C(F)(F)F)nn3-c3ccccc3Cl)cc2)c1 [Example 92, 2-[4′-({[1-(2-chlorophenyl)-3-(trifluoromethyl)-1H-pyrazol-5-yl]methyl}oxy)biphenyl-3-yl]-2-methylpropanoic acid]"
12,< 1,"CCS(=O)(=O)c1cccc(-c2ccc(-n3cc(C4=NC(C)(C)CO4)nc3-c3c(Cl)cccc3Cl)c(Cl)c2)c1 [Example 935, 2-{1-[3-chloro-3′-(ethylsulfonyl)biphenyl-4-yl]-2-(2,6-dichlorophenyl)-1H-imidazol-4-yl}-4,4-dimethyl-4,5-dihydro-1,3-oxazole]"
13,< 1,"CS(=O)(=O)c1cccc(-c2ccc(-n3cc(-n4cnc(CO)c4)nc3-c3ccccc3C(F)(F)F)cc2)c1 [Example 1009, (1′-(3′-(methylsulfonyl)biphenyl-4-yl)-2′-(2-(trifluoromethyl)phenyl)-1′H-1,4′-biimidazol-4-yl)methanol]"
14,< 1,"CS(=O)(=O)c1cccc(-c2ccc(-n3cc(C4=NCCO4)nc3-c3c(Cl)cccc3Cl)c(Cl)c2)c1 [Example 936, 2-{1-[3-chloro-3′-(methylsulfonyl)biphenyl-4-yl]-2-(2,6-dichlorophenyl)-1H-imidazol-4-yl}-4,5-dihydro-1,3-oxazole]"
15,< 1,"CS(=O)(=O)c1cccc(-c2ccc(COc3cc(C(F)(F)F)nn3-c3c(Cl)cccc3Cl)cc2)c1 [Example 116, 1-(2,6-dichlorophenyl)-5-({[3′-(methylsulfonyl)biphenyl-4-yl]methyl}oxy)-3-(trifluoromethyl)-1H-pyrazole]"
16,> 10,"CS(=O)(=O)c1cccc(NC(=O)c2cc(C(F)(F)F)nn2-c2ccccc2Cl)c1 [Example 611, 1-(2-chlorophenyl)-N-[3-(methylsulfonyl)phenyl]-3-(trifluoromethyl)-1H-pyrazole-5-carboxamide]"
17,< 1,CS(=O)(=O)c1cccc(-c2ccc(-n3cc(-n4cccc4C#N)nc3-c3ccccc3C(F)(F)F)cc2)c1 [Example 1010]

row,EC50 [µM],Structure (SMILES)
1,1 to 10,"CS(=O)(=O)c1cccc(-c2ccc(-n3cc(-c4cc(C(F)(F)F)on4)nc3-c3ccccc3Cl)c(Cl)c2)c1 [Example 990, 3-(1-(3-chloro-3′-(methylsulfonyl)biphenyl-4-yl)-2-(2-chlorophenyl)-1H-imidazol-4-yl)-5-(trifluoromethyl)isoxazole]"
2,< 1,"CS(=O)(=O)c1cccc(-c2ccc(-n3cc(-c4cnco4)nc3-c3ccccc3Cl)c(Cl)c2)c1 [Example 1028, 5-(1-(3-chloro-3′-(methylsulfonyl)biphenyl-4-yl)-2-(2-chlorophenyl)-1H-imidazol-4-yl)oxazole]"
3,> 10,"O=C(Oc1cccc(OCc2cc(C(F)(F)F)nn2-c2ccccc2Cl)c1)c1ccccc1 [Example 95, 3-({[1-(2-chlorophenyl)-3-(trifluoromethyl)-1H-pyrazol-5-yl]methyl}oxy)phenyl benzoate]"
4,< 1,"Cc1cc(-c2cccc(S(C)(=O)=O)c2)ccc1OCc1cc(C(F)(F)F)nn1-c1ccccc1Cl [Example 909, 1-(2-chlorophenyl)-5-({[3-methyl-3′-(methylsulfonyl)biphenyl-4-yl]oxy}methyl)-3-(trifluoromethyl)-1H-pyrazole]"
5,< 1,"CS(=O)(=O)c1cccc(C#Cc2cc(C(F)(F)F)nn2-c2ccccc2Cl)c1 [Example 108, 1-(2-chlorophenyl)-5-{[3-(methylsulfonyl)phenyl]ethynyl}-3-(trifluoromethyl)-1H-pyrazole]"
6,> 10,"CC1(C)CN=C(c2cn(-c3ccc(-c4cccc(S(C)(=O)=O)c4)cc3Cl)c(-c3c(Cl)cccc3Cl)n2)N1 [Example 942, 1′-[3-chloro-3′-(methylsulfonyl)biphenyl-4-yl]-2′-(2,6-dichlorophenyl)-5,5-dimethyl-4,5-dihydro-1H,1′H-2,4′-biimidazole]"
7,< 1,"Cc1coc(-c2cn(-c3ccc(-c4cccc(S(C)(=O)=O)c4)cc3)c(-c3ccccc3C(F)(F)F)n2)n1 [Example 1026, methyl-2-(1-(3′-(methylsulfonyl)biphenyl-4-yl)-2-(2-(trifluoromethyl)phenyl)-1H-imidazol-4-yl)oxazole]"
8,> 10,"CC(=O)c1cccc(NC(=O)Nc2cc(C(F)(F)F)nn2-c2ccccc2C(F)(F)F)c1 [Example 105, N-(3-acetylphenyl)-N′-{3-(trifluoromethyl)-1-[2-(trifluoromethyl)phenyl]-1H-pyrazol-5-yl}urea]"
9,1 to 10,"CS(=O)(=O)c1cccc(-c2ccc(OCc3cc(C(F)(F)F)nn3-c3ccccc3Cl)c(C#N)c2)c1 [Example 926, 4-({[1-(2-chlorophenyl)-3-(trifluoromethyl)-1H-pyrazol-5-yl]methyl}oxy)-3′-(methylsulfonyl)biphenyl-3-carbonitrile]"
10,< 1,"CS(=O)(=O)c1cccc(-c2ccc(-n3cc(-c4ccsc4)nc3-c3cccc(Cl)c3Cl)cc2)c1 [Example 992, 2-(2,3-dichlorophenyl)-1-(3′-(methylsulfonyl)biphenyl-4-yl)-4-(thiophen-3-yl)-1H-imidazole]"
11,< 1,"CS(=O)(=O)c1cccc(-c2ccc(-n3cc(C4(O)CC4)nc3-c3ccccc3Cl)cc2)c1 [Example 980, 1-(2-(2-chlorophenyl)-1-(3′-(methylsulfonyl)biphenyl-4-yl)-1H-imidazol-4-yl)cyclopropanol]"
12,< 1,CS(=O)(=O)c1cccc(-c2ccc(-n3cc(-c4nc(=O)o[nH]4)nc3-c3ccccc3C(F)(F)F)cc2)c1 [Example 1035]
13,< 1,"CS(=O)(=O)c1cccc(-c2ccc(-n3cc([C@H]4CCCN4)nc3-c3ccccc3C(F)(F)F)cc2)c1 [Example 1016, 1-(3′-(methylsulfonyl)biphenyl-4-yl)-4-((R)-pyrrolidin-2-yl)-2-(2-(trifluoromethyl)phenyl)-1H-imidazole]"
14,< 1,"CS(=O)(=O)c1cccc(-c2ccc(-n3cc(N4CCC(O)C4)nc3-c3ccccc3C(F)(F)F)cc2)c1 (stereo not drawn) [Example 1003, 1-(1-(3′-(methylsulfonyl)biphenyl-4-yl)-2-(2-(trifluoromethyl)phenyl)-1H-imidazol-4-yl)pyrrolidin-3-ol]"
15,> 10,"CCOC(=O)c1cc2cc(OCc3cc(C(F)(F)F)nn3-c3ccccc3Cl)ccc2[nH]1 [Example 38, ethyl 5-({[1-(2-chlorophenyl)-3-(trifluoromethyl)-1H-pyrazol-5-yl]methyl}oxy)-1H-indole-2-carboxylate]"
16,> 10,"CC(=O)N1CCC[C@@H]1c1cn(-c2ccc(-c3cccc(S(C)(=O)=O)c3)cc2)c(-c2ccccc2C(F)(F)F)n1 [Example 1019, 1-((2R)-2-(1-(3′-(methylsulfonyl)biphenyl-4-yl)-2-(2-(trifluoromethyl)phenyl)-1H-imidazol-4-yl)pyrrolidin-1-yl)ethanone]"
